# Reference: patent US20200072711A1, “FLUORESCENT ENDOPLASMIC RETICULUM TRACKERS FOR LIVE CELL IMAGING OF PATHOGENIC YEAST” (Ramot at Tel Aviv University Ltd., priority 2018, published 2020)
# Entries after “also recorded” stand apart in the source; their conditions may differ.
# System: C. glabrata ATCC 66032
# Assay: Minimal inhibitory concentration broth double-dilution assay
# Format: cell-based, Candida glabrata
# Details: Nakaseomyces glabratus, ATCC66032, 24 h, 37° C., Casitone
# Protocol: (§1) Minimal inhibitory concentration broth double-dilution assay. All strains were tested using the double-dilution method in 96-well plates (Corning). Yeast strains were grown in Casitone growth medium. Starter cultures were incubated for 24 h (37° C., 5% CO2, aerobic conditions) and then diluted 1:100 into fresh medium. Compounds dissolved in ethanol or in DMSO were added to the casitone broth to form the mother liquor (32 μL stock solution in 1218 μL of casitone) at the starting concentration of 64 μg/mL. Next, 100 μL of serial double dilutions of compounds in Casitone ([…], and 0.007 μg/mL) were prepared in flat-bottomed 96-well microplates (Corning). Control wells with no compounds, and wells without yeast cells containing each tested concentration of the compounds (blanks), were also prepared. An equal volume (100 μL) of yeast suspensions in Casitone broth that was prepared as follows: 900 mL doubly distilled H2O, 9 g Casitone (bacto-casitone), 5 g yeast extract, 11.5 g sodium citrate dihydrate, 20 g glucose. The yeast suspension was added to each well for a final volume of 200 μL. The ethanol or the DMSO concentrations ranged from 0.0012% to 1.3%. The final inoculum was between 5×10^4 colony-forming unit (CFU)/mL and 5×10^5 CFU/mL; identical results were obtained when using 5×10^3 CFU/mL as a final inoculum. After incubation for 24 h at 37° C. in 5% CO2, MTT (3-[4,5-dimethylthiazole-2-yl]-2,5-diphenyltetrazolium bromide; 50 μL of a 1 mg/mL solution in H2O) was added to each well followed by additional incubation at 37° C. for 2 h. Each concentration was tested in triplicate, and results were confirmed by two independent sets of experiments.
row,SMILES,MIC [µg/mL]
1,CCN(CC)c1ccc2cc(C(=O)NCC(O)(Cn3ccnn3)c3ccc(F)cc3F)c(=O)oc2c1 (stereo not shown) [Probe 2],> 64

# System: C. glabrata ATCC 2001
# Assay: as above
# Format: cell-based, Candida glabrata
# Details: Nakaseomyces glabratus, ATCC2001, 24 h, 37° C., Casitone
# Protocol: as §1
row,SMILES,MIC [µg/mL]
1,CCN(CC)c1ccc2cc(C(=O)NCC(O)(Cn3ccnn3)c3ccc(F)cc3F)c(=O)oc2c1 (stereo not shown) [Probe 2],> 64

# System: C. albicans SN152
# Assay: as above
# Format: cell-based
# Details: Candida albicans, 24 h, 37° C., Casitone
# Protocol: as §1
row,SMILES,MIC [µg/mL]
1,CCN(CC)c1ccc2cc(C(=O)NCC(O)(Cn3ccnn3)c3ccc(F)cc3F)c(=O)oc2c1 (stereo not shown) [Probe 2],> 64

# System: C. albicans ATCC 24433
# Assay: as above
# Format: cell-based
# Details: Candida albicans, ATCC24433, 24 h, 37° C., Casitone
# Protocol: as §1
row,SMILES,MIC [µg/mL]
1,CCN(CC)c1ccc2cc(C(=O)NCC(O)(Cn3ccnn3)c3ccc(F)cc3F)c(=O)oc2c1 (stereo not shown) [Probe 2],> 64

# System: C. albicans cells
# Assay: Live cell imaging, ER labeling
# Format: cell-based, Candida albicans
# Details: not given
# Protocol: (§2) Growth conditions for live cell imaging. Cells were grown to log phase in liquid YPD overnight at 30° C. in a 10 ml tube. Cells were diluted 1:10 and then incubated for 2 h at 30° C. to log phase.
# (§3) Cell staining. The fluorescent probes were added to a final concentration of 10 μM for probes 1-6 to cells from a log phase culture grown in YPD broth media at 30° C. Cells were then incubated in the dark for a total of 60 min. Before imaging, cells were washed once with PBS buffer. For ER-tracker dyes, DiOC6 (1 μg/mL) and BODIPY™ TR Glibenclamide (1 μM), staining cells were incubated in a prepared Hanks' Balanced Salt Solution at 37° C. for 5 min and 30 min, respectively. For ER-tracker Blue-White DPX (1 μM), staining cells were incubated in YPD for 30 min at 30° C. For mitochondrial staining the previously reported Cy5-based mitochondrial dye was used (1 μg/mL). For staining, cells were incubated in YPD in the presence of dye for 5 min at 30° C. Cells were then washed with PBS buffer once.
# (§4) Live cell imaging. Candida cells were resuspended in PBS buffer and 2 μL were placed on a glass slides and covered with glass coverslips. […]
row,SMILES,staining pattern
1,CN(C)c1ccc(-c2cnc(-c3ccc(S(=O)(=O)NCCNC(=O)c4c(F)c(F)c(F)c(F)c4F)cc3)o2)cc1 [Blue-White DPX],non-specific staining of the cytoplasm

# System: C. albicans SN152
# Assay: Live cell imaging, ER labeling
# Format: cell-based, Candida albicans
# Details: not given
# Protocol: as §2, §3, §4
row,SMILES,staining pattern
1,"CCCCCCN1C(=CC=Cc2oc3ccccc3[n+]2CCCCCC)Oc2ccccc21.[I-] [DiOC6, 3,3′-dihexyloxacarbocyanine iodide]",non-specific staining of other cellular compartments such as lipid droplets was also observed

# System: all tested Candida strains
# Assay: MIC assay, over the panel
# Format: cell-based
# Details: not given
# Protocol: as §1, with “The final inoculum was between 5×10^4 colony-forming unit (CFU)/mL and 5×10^5 CFU/mL; identical results were obtained when using 5×10^3 CFU/mL as a final inoculum. After incubation for 24 h at 37° C. in 5% CO2, MTT (3-[4,5-dimethylthiazole-2-yl]-2,5-diphenyltetrazolium bromide; 50 μL of a 1 mg/mL solution in H2O) was added to each well followed by additional incubation at 37° C. for 2 h. Each concentration was tested in triplicate, and results were confirmed by two independent sets of experiments.” left out
# The ER-labeling properties were evaluated by incubating the compounds with representative strains of C. albicans and C. glabrata. […]
row,SMILES,MIC [µg/mL]
1,CCN(CC)c1ccc2cc(C(=O)NCC(O)(Cn3ccnn3)c3ccc(F)cc3F)c(=O)oc2c1 (stereo not shown) [Probe 2],≥ 64

# System: tested panel of Candida strains
# Assay: Live cell imaging, ER labeling
# Format: cell-based
# Details: panel of Candida strains (C. albicans and C. glabrata)
# Protocol: as §2, §3
# Live cell imaging. Candida cells were resuspended in PBS buffer and 2 μL were placed on a glass slides and covered with glass coverslips. C. glabrata (ATCC 2001) cells treated with probes 1-6, all tested Candida cells treated with ER-tracker Blue-White DPX and inter-organelle interaction study were imaged on a MORE imaging system (TILL Photonics GmbH) with an Olympus UPlanApo 100X 1.3 NA oil immersion objective. The bandpass filter sets used to image probes 1-3 were excitation 427/10 nm and emission 510/20 nm. The bandpass filter sets used to image probes 4-6 were excitation 485/20 nm and emission 525/30 nm. The bandpass filter sets used to image ER-tracker Blue-White DPX were excitation 390/40 nm and emission 525/30 nm. The bandpass filter sets used to image Cy5-based mitochondrial dye were excitation 560/25 nm and emission 684/24 nm. C. albicans cells (ATCC 24433 and SN152) and C. glabrata (ATCC 66032) treated with probes 1-6 were imaged on a Nikon Ti microscope equipped with a Plan Apo VC 100X oil objective and a Zyla 5.5 sCMOS camera (Andor) run by NIS elements Ar software. The bandpass filter sets used to image probes 1-3, and DiOC6-stained cells were excitation 440 nm and emission 480/40 nm. The bandpass filter sets used to image cells treated with probes 4-6, excitation 470 nm and emission 525/50 nm were used. For Eno1-mCherry, excitation 585 nm and emission 630/75 nm were used. To optimize the probes, the effects of the concentration (1, 5 and 10 μM), incubation time (5, 30, 60 and 120 min) and media (YPD and HBSS) were investigated. Images were processed using ImageJ program. The smoothed imaged were generated using the convolve filter (Normalize Kernel).
row,SMILES,staining pattern
1,CN(C)c1ccc(-c2cnc(-c3ccc(S(=O)(=O)NCCNC(=O)c4c(F)c(F)c(F)c(F)c4F)cc3)o2)cc1 [Blue-White DPX],"stained Candida glabrata cells only; also recorded: non-specific labeling of additional intracellular compartments, such as lipid droplets, was observed"
2,"CCCCCCN1C(=CC=Cc2oc3ccccc3[n+]2CCCCCC)Oc2ccccc21.[I-] [DiOC6, 3,3′-dihexyloxacarbocyanine iodide]","more significant in C. albicans than in C. glabrata yeast cells; also recorded: non-specific labeling of additional intracellular compartments, such as lipid droplets, was observed"
3,COC(=O)CCC1=[N+]2C(=Cc3c(C)cc(C)n3[B-]2(F)F)C=C1 [BODIPY-methyl ester],the entire cytoplasm was labeled in a non-specific pattern
4,"CCOC(=O)c1cc2ccc(N(CC)CC)cc2oc1=O [ethyl ester of 7-(diethyl)-aminocoumarin, 7-(diethyl)-aminocoumarin ethyl ester]",did not stain the yeast cell interior of any of the tested Candida strains
5,CCN(CC)c1ccc2cc(C(=O)NCC(O)(Cn3ccnn3)c3ccc(F)cc3F)c(=O)oc2c1 (stereo not shown) [Probe 2],the distinct nuclear envelope and cortical structure of the ER were clearly observed

# System: not listed separately
# Assay: Absorption and emission spectra of fluorescent probes
# Format: physicochemical
# Details: 10 μM in PBS, pH=7.4
# Protocol: FIGS. 4A-4F show absorption and emission spectra of probes 1-6 (10 μM in PBS, pH=7.4), respectively. Emission spectrum was measured after excitation at 420 nm.
# General chemistry methods and instrumentation. ^1H-NMR spectra (including 1D-TOCSY) were recorded on BrukerAvance™ 400 or 500 MHz spectrometers, and chemical shifts (reported in ppm) were calibrated to CDCl3 (d=7.26) when CDCl3 was the solvent, or to CD3OD (d=3.31) when CD3OD was the solvent. ^13C-NMR spectra were recorded on BrukerAvance™ 400 or 500 MHz spectrometers at 100 or 125 MHz. ^19F-NMR spectra were recorded on BrukerAvance™ 400 or 500 MHz spectrometers at 375 or 470 MHz. Multiplicities are reported using the following abbreviations: b=broad, s=singlet, d=doublet, t=triplet, q=quartet. Coupling constants (J) are given in Hertz. HRESI mass spectra were measured on a Waters Synapt instrument. Chemical reactions were monitored by TLC (Merck, Silica gel 60 F254). Visualization was achieved using a cerium molybdate stain (5 g (NH4)2Ce(NO3)6, 120 g (NH4)6Mo7O24·4H2O, 80 mL H2SO4, 720 mL H2O) or with UV lamp. Unless otherwise stated, all chemicals were obtained from commercial sources. Compounds were purified using Geduran® Si 60 chromatography (Merck). The SpectraMax i3x Platform spectrophotometer from Molecular Devices was used for the measurement of the excitation and absorbance spectra of the fluorescent probes.
# We first measured the absorption and emission spectra of fluorescent probes 1-6. […] This 70-nm redshift effect is attributed to the effect of the halogen atoms in the phenyl ring segment of these molecules: a difluorophenyl ring in probe 2 and a dichlorophenyl in probe 3.
row,SMILES,absorption spectrum maxima [nm]
1,CCN(CC)c1ccc2cc(C(=O)NCC(O)(Cn3ccnn3)c3ccc(F)cc3F)c(=O)oc2c1 (stereo not shown) [Probe 2],430

# Same assay, conditions: 10 μM in PBS, pH=7.4; excitation at 420 nm
row,SMILES,emission maxima [nm]
1,CCN(CC)c1ccc2cc(C(=O)NCC(O)(Cn3ccnn3)c3ccc(F)cc3F)c(=O)oc2c1 (stereo not shown) [Probe 2],480

# System: not given
# Assay: not given
# Details: commercial ER-trackers; cited from earlier work
SMILES,emission (em),excitation (ex) [nm]
CN(C)c1ccc(-c2cnc(-c3ccc(S(=O)(=O)NCCNC(=O)c4c(F)c(F)c(F)c(F)c4F)cc3)o2)cc1 [Blue-White DPX],430-640 nm,374
"CCCCCCN1C(=CC=Cc2oc3ccccc3[n+]2CCCCCC)Oc2ccccc21.[I-] [DiOC6, 3,3′-dihexyloxacarbocyanine iodide]",500 nm,480

# System: C. glabrata strains
# Assay: Live cell imaging, ER labeling
# Format: cell-based, Candida glabrata
# Details: C. glabrata yeast cells
# Protocol: as §2, §3, §4
row,SMILES,staining pattern
1,CN(C)c1ccc(-c2cnc(-c3ccc(S(=O)(=O)NCCNC(=O)c4c(F)c(F)c(F)c(F)c4F)cc3)o2)cc1 [Blue-White DPX],label the ER; also recorded: a circular pattern around the nuclear envelope with peripheral cortical extensions reminiscent of the ER structure was clearly visible
